Laboratory results taken from ChEMBL document CHEMBL3988442, “University of Dundee, Small-Polar-MMV Screening Library” (2021).

Key:
[1] = microbe, parasite or virus in culture; settings: Mycobacterium tuberculosis, 96 h, read-out: pIC50 (converted)
[2] = microbe, parasite or virus in culture; settings: Mycobacterium tuberculosis, 72 h, read-out: pIC50 (converted)

Compound	IC50 [1] [µM]	IC50 [2] [µM]
CCCn1nnnc1NCc1ccc(F)cc1	19.8	37.8
CSc1nnc(CN(C)CCO)s1	56.6	> 501
Clc1cncc(NCC2CN(C3CC3)CCO2)n1 (centres undefined)	311	259
CCc1ccc(CN(C)C(=O)c2cccn2C)nc1	257	175
Cc1ccc(-c2nc(CSc3nnc(N)[nH]3)no2)cc1	80.2	107
OC1(CNc2nc(-c3ccccc3)ns2)CCSC1 (centres undefined)	256	279
CCN1CCN(S(=O)(=O)c2c[nH]c(C(C)C)n2)c2ccccc21	> 50.1	> 50.1
Cc1ccccc1N1C(=O)C=CC1=O	254	157
N[C@H]1CN(S(=O)(=O)c2cccc(Cl)c2)C[C@@H]1C1CC1	> 501	363
CN(Cc1ccc(Oc2ccccc2)cc1)C(=O)CN	157	130
O=C(Nc1ccnc(CO)c1)c1ccc(F)cc1I	433	367
O=C(CNC(=O)c1cccs1)c1ccccc1	> 501	> 501
CC(C)c1csc(C(=O)N(C)c2ccc(Br)cn2)n1	25.3	21.7
CC(CCc1ccco1)NC(=O)Nc1cc(C(F)(F)F)c[nH]c1=O (centres undefined)	43.3	15.9
Cc1cc(C)c(C)c(OCC(=O)N2CCN(C)CC2)c1	129	111
CCc1noc(CNc2cc3c(cc2Cl)OCCO3)n1	8.97	26.8
CCS(=O)(=O)c1ccc(CNc2ncccc2Cl)cc1	> 501	242
CCCNc1cc(-n2cccn2)ncn1	280	58.4
COCCN(C)CCNC(=O)c1cc2ccccc2[nH]1	> 501	> 501
CCOC(=O)C(C)Nc1ccc2oc(=O)[nH]c2c1 (centres undefined)	292	311
Brc1ccc2c(c1)OCCNC2	> 501	> 501
CNCCc1ccccc1OC	124	74.4

Compound	IC50 [1] [µM]	IC50 [2] [µM]
CCC(N)c1ccccc1OC (centres undefined)	> 501	267
Cc1cc(Cl)ccc1NC(=O)CN1CCN(C)CC1	> 501	> 501
CCC[C@H]1CN(S(=O)(=O)Cc2ccc(F)cc2)C[C@@H]1N	> 501	> 501
CCc1nc(CN2CCCN(c3cnc4ccccc4n3)CC2)no1	26.5	> 50.1
CC(C)S(=O)(=O)CCCn1nnc(-c2ccsc2)n1	94.9	56.7
CC(=O)c1ccccc1NC(=O)CN1CC[C@H](N)C1	> 501	158
Cc1ccc(-n2nnnc2NC2CC2)cc1	> 501	263
CC(C)(C)c1nc(CN2CCC(c3ccnn3CCO)CC2)no1	> 50.1	> 50.1
NCCCc1nc2ccccc2o1	255	211
COCCC(CO)NC(=O)c1cnn(C(C)C)c1C (centres undefined)	124	110
COc1ccc(C(N)CO)c2ccccc12 (centres undefined)	313	193
CCOc1ccc(OCc2nccc(-c3cc(C(=O)O)ccn3)n2)cc1	> 50.1	> 50.1
CC1CCN(S(=O)(=O)NC(C)C(C)C)CC1 (centres undefined)	> 501	261
OCCN1CCN(c2nc(-c3ccccc3)no2)CC1	> 501	83.7
CCCn1nnc(NC(=O)COc2ccc(Cl)cc2)n1	272	237
NC1CCN(c2ncccc2F)C1 (centres undefined)	> 501	462
O=C(Cn1cnnn1)NCC1(c2ccccc2)CCC1	> 501	304
N#Cc1cccc(N2CCCC(CO)(Cc3ccccc3F)C2)n1 (centres undefined)	> 50.1	12.6
CCSC1=Nc2c(cnn2-c2ccc(Cl)cc2)C2=NCCCN12	17.1	12.8
O=C(c1cc(C2CC2)on1)N1CC(O)(C2CC2)C1	44.5	47.3
CC(C)CCOCCSc1nnnn1C	82.3	155
Cc1cccc(NCCC(=O)NC2CCCC2)n1	> 501	122

Compound	IC50 [1] [µM]	IC50 [2] [µM]
Cn1ccc(C(=O)NCc2csc(Br)c2)cc1=O	> 501	> 501
COCCC(C)NC(=O)Nc1ccc(C#N)cc1 (centres undefined)	159	232
Cc1ncsc1C(=O)NC(C)C(C)C (centres undefined)	> 501	> 501
COc1cccc(CNCCNc2cccc(C)n2)c1	> 501	248
O=C(CCC(F)(F)F)N1CCCC(CO)(CC2CC2)C1 (centres undefined)	4.11	2.54
Cc1ccc(C(O)c2cccnc2)cc1 (centres undefined)	> 501	> 501
Cc1ccc(OC2CN(C(=O)[C@H](N)C(C)C)C2)cc1	236	393
O=C(CSCCO)Nc1ncc(-c2ccccc2)s1	272	174
CN(C)c1ccc(C(=O)N2CCCC2c2cnn(C)c2)nn1 (centres undefined)	> 50.1	> 50.1
CN(C)C(=O)CSc1nnc(C(F)(F)F)s1	305	487
Cc1nc(C(=O)NCc2cccs2)ccc1C#N	64.4	82.4
CS(=O)(=O)N1CCC(COCc2ccccc2)C1 (centres undefined)	165	301
c1cc(-c2ccn(CCN3CCCC3)n2)cc(-c2nccs2)c1	27.4	43.6
N#Cc1cccc(NCC(=O)NCc2ccco2)c1	108	223
Cc1cccc(NC(=O)CN(C)Cc2nnsc2Cl)n1	> 501	246
COc1cc(OC)cc(N2CCC(N)C2)c1 (centres undefined)	213	232
COCCN1CCCC(Nc2ccc(Cl)cn2)C1 (centres undefined)	172	145
CC(C)CNc1cccc(-n2cnnn2)c1	247	274
CC(NC(=O)CNc1ccccc1F)c1ccco1 (centres undefined)	4.24	51.7
CCNc1ncc(C(=O)N2CCOC(CCCC(C)C)C2)cn1 (centres undefined)	43	> 50.1
CCN(C)c1ccc(CNC(=O)CCn2cc(C)cn2)cc1F	> 50.1	> 50.1
c1ccc2oc(NC3CCCN(Cc4noc(C5CC5)n4)C3)nc2c1 (centres undefined)	13.5	24.9

Compound	IC50 [1] [µM]	IC50 [2] [µM]
COCC(=O)NC(C)Cc1cccc(Cl)c1 (centres undefined)	18.5	11.2
N#Cc1cc(Br)ccc1NCCC(=O)N1CCOCC1	> 501	165
CN(CCN1CCCC1)S(=O)(=O)c1ccccc1	> 501	208
CC(C1CC1)N(C)Cc1nnc(-c2ccc(Br)s2)o1 (centres undefined)	42.1	2.95
CNC(=O)NC(=O)CSc1ccccc1F	> 501	> 501
CN(C)S(=O)(=O)NC1CCCOc2c(Cl)cccc21 (centres undefined)	> 501	> 501
OC1CCN(Cc2ccc3c(c2)CCC3)C1 (centres undefined)	> 501	213
Cc1nc(C2CCCN2Cc2cc(Cl)c3c(c2)OCCO3)no1 (centres undefined)	15.9	22.3
CCCNC(=O)c1ccc2c(c1)NC(=O)C(C)S2 (centres undefined)	> 501	406
Cc1cnn(CCNCc2cccc3c2OCO3)c1	> 501	258
CC(=O)Nc1nc(C(=O)NCCOc2ccc(C)cc2)cs1	> 50.1	> 50.1
CCOC(=O)CSc1ccc(-c2nc(CC)no2)cn1	27.2	29.9
COc1cc(C(=O)NC(C)CC#N)ccc1C (centres undefined)	184	185
c1cnc(-c2nc(C3CCOC3)no2)cn1 (centres undefined)	> 50.1	> 50.1
Cc1cc2[nH]c(O)nc2cc1NCc1ccc(F)cc1	> 50.1	24.3
COc1cccc(CNc2cncc(SC)n2)n1	176	139
CC1Cc2ccccc2N1C(=O)c1ccccn1 (centres undefined)	> 501	> 501
Nc1nnc(SCc2coc(-c3ccccc3)n2)[nH]1	> 501	> 501
O=C(c1ccc(Br)o1)N1CCN(Cc2ccco2)CC1	92	97.2
CC(CNC(=O)c1ccncc1)c1ccccc1 (centres undefined)	> 501	189
CC(C)Cc1nnc(NCc2ccsc2)o1	35.4	3.95
COCCCN(C)c1nc(-c2ccncc2)nc(C)c1C	6.84	11.8

Compound	IC50 [1] [µM]	IC50 [2] [µM]
CC(C)CS(=O)(=O)NCc1ccc2c(c1)OCO2	> 501	183
CCc1noc(CNc2cc3c(cc2Cl)OCCCO3)n1	> 50.1	> 50.1
OC(CN1CCn2ccnc2C1)c1ccc(F)cc1 (centres undefined)	> 501	173
CC1CCC(NC(=O)Cn2cnc(C#N)n2)CC1 (centres undefined)	98.1	101
c1cnc(N2CC[C@@H](OCC3CC3)[C@@H]2Cc2cccnc2)nc1	> 50.1	> 50.1
c1cncc(CN2CCCC(c3nnc(-c4cnccn4)o3)C2)c1 (centres undefined)	> 50.1	> 50.1
Cc1nsc(C(=O)NCCc2cccs2)n1	32.7	13.5
Cc1ccc(C(C)NC(=O)Nc2nccn(C)c2=O)o1 (centres undefined)	> 501	> 501
NC(=O)C1CCCN(CCc2ccccc2)C1 (centres undefined)	> 501	> 501
CC(C)Oc1ccc(CN)cc1	> 501	284
COCCCSc1ccc(NCc2scnc2C)cc1	38.7	25.4
O=C(NC1CCCN(CCCc2ccccc2)C1)c1ccc(Cl)s1 (centres undefined)	24.4	33.6
Cc1ccc(NCc2ncc[nH]2)c(F)c1	> 501	216
Cc1cccc(NCCCNC(=O)c2cccs2)n1	> 501	> 501
CCc1nc(NC2CCCN(C(=O)c3cccs3)C2)c2cnn(C)c2n1 (centres undefined)	> 50.1	> 50.1
FC(F)Oc1cccc(N2CCNCC2)c1	347	147
CC(C)Cc1noc(-c2ccc(N(C)CCO)nc2)n1	397	239
O=S1(=O)CCCN(Cc2ccc(Br)c(F)c2)CC1	242	386
Cc1c(CN2CCSCC2)cccc1NS(C)(=O)=O	> 501	> 501
